From PubChem BioAssay (NCI)
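A five-concentration, 48-hour dose response in 96-well plates underlies each endpoint, interpolated linearly between surrounding concentrations. The concentration for full growth arrest is given as TGI.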

Legend:
Assay in all cases: NCI anticancer screen, dose series, 48 h
786-0 renal = system: 786-0 renal
LOX IMVI melanoma = system: LOX IMVI melanoma
RPMI-8226 leukemia = system: RPMI-8226 leukemia
PC-3 prostate = system: PC-3 prostate
SK-MEL-28 melanoma = system: SK-MEL-28 melanoma
KM12 colon = system: KM12 colon
SF-295 CNS = system: SF-295 CNS
COLO 205 colon = system: COLO 205 colon
MCF7 breast = system: MCF7 breast
ACHN renal = system: ACHN renal
SK-MEL-5 melanoma = system: SK-MEL-5 melanoma
HT29 colon = system: HT29 colon
IGROV1 ovarian = system: IGROV1 ovarian
HCT-116 colon = system: HCT-116 colon
NCI-H23 lung = system: NCI-H23 lung
HOP-92 NSCLC = system: HOP-92 NSCLC
SF-539 CNS = system: SF-539 CNS
CCRF-CEM leukemia = system: CCRF-CEM leukemia
NCI-H460 lung = system: NCI-H460 lung
T-47D breast = system: T-47D breast
UACC-62 melanoma = system: UACC-62 melanoma
HCC-2998 colon = system: HCC-2998 colon
UO-31 renal = system: UO-31 renal
OVCAR-8 ovarian = system: OVCAR-8 ovarian
NCI/ADR-RES ovarian = system: NCI/ADR-RES ovarian
A498 renal = system: A498 renal
SK-MEL-2 melanoma = system: SK-MEL-2 melanoma
UACC-257 melanoma = system: UACC-257 melanoma
NCI-H226 lung = system: NCI-H226 lung
DU-145 prostate = system: DU-145 prostate
BT-549 breast = system: BT-549 breast
SR leukemia = system: SR leukemia
SNB-19 CNS = system: SNB-19 CNS
HOP-62 NSCLC = system: HOP-62 NSCLC
MDA-MB-435 = system: MDA-MB-435
SW-620 colon = system: SW-620 colon
M14 melanoma = system: M14 melanoma
K-562 leukemia = system: K-562 leukemia
HCT-15 colon = system: HCT-15 colon
SNB-75 CNS = system: SNB-75 CNS
OVCAR-5 ovarian = system: OVCAR-5 ovarian
A549 NSCLC = system: A549 NSCLC
SN12C renal = system: SN12C renal
MDA-N = system: MDA-N
RXF 393 renal = system: RXF 393 renal
MDA-MB-231 breast = system: MDA-MB-231 breast
EKVX NSCLC = system: EKVX NSCLC
MOLT-4 leukemia = system: MOLT-4 leukemia
OVCAR-3 ovarian = system: OVCAR-3 ovarian
CAKI-1 renal = system: CAKI-1 renal
OVCAR-4 ovarian = system: OVCAR-4 ovarian
U251 CNS = system: U251 CNS
TK-10 renal = system: TK-10 renal
HS 578T breast = system: HS 578T breast
SK-OV-3 ovarian = system: SK-OV-3 ovarian
SF-268 CNS = system: SF-268 CNS
HL-60(TB) leukemia = system: HL-60(TB) leukemia
MALME-3M melanoma = system: MALME-3M melanoma
NCI-H522 lung = system: NCI-H522 lung

## CCOC(=O)c1cn(-c2ccc([N+](=O)[O-])cc2)c(=S)n2c1nc1ccccc12
786-0 renal
  TGI: > 100 µM
LOX IMVI melanoma
  TGI: > 100 µM
RPMI-8226 leukemia
  TGI: > 100 µM
PC-3 prostate
  TGI: > 100 µM
SK-MEL-28 melanoma
  TGI: > 100 µM
KM12 colon
  TGI: > 100 µM
SF-295 CNS
  TGI: > 100 µM
COLO 205 colon
  TGI: 48.5 µM
MCF7 breast
  TGI: > 100 µM
ACHN renal
  TGI: > 100 µM
SK-MEL-5 melanoma
  TGI: > 100 µM
HT29 colon
  TGI: > 100 µM
IGROV1 ovarian
  TGI: > 100 µM
HCT-116 colon
  TGI: > 100 µM
NCI-H23 lung
  TGI: > 100 µM
HOP-92 NSCLC
  TGI: 57.1 µM
SF-539 CNS
  TGI: > 100 µM
CCRF-CEM leukemia
  TGI: > 100 µM
NCI-H460 lung
  TGI: > 100 µM
T-47D breast
  TGI: > 100 µM
UACC-62 melanoma
  TGI: > 100 µM
HCC-2998 colon
  TGI: > 100 µM
UO-31 renal
  TGI: 4.64 µM
OVCAR-8 ovarian
  TGI: > 100 µM
NCI/ADR-RES ovarian
  TGI: > 100 µM
A498 renal
  TGI: 87.7 µM
SK-MEL-2 melanoma
  TGI: 76.7 µM
UACC-257 melanoma
  TGI: > 100 µM
NCI-H226 lung
  TGI: > 100 µM
DU-145 prostate
  TGI: > 100 µM
BT-549 breast
  TGI: > 100 µM
SR leukemia
  TGI: > 100 µM
SNB-19 CNS
  TGI: > 100 µM
HOP-62 NSCLC
  TGI: > 100 µM
MDA-MB-435
  TGI: > 100 µM
SW-620 colon
  TGI: > 100 µM
M14 melanoma
  TGI: > 100 µM
K-562 leukemia
  TGI: > 100 µM
HCT-15 colon
  TGI: > 100 µM
SNB-75 CNS
  TGI: > 100 µM
OVCAR-5 ovarian
  TGI: > 100 µM
A549 NSCLC
  TGI: > 100 µM
SN12C renal
  TGI: > 100 µM
MDA-N
  TGI: > 100 µM
RXF 393 renal
  TGI: > 100 µM
MDA-MB-231 breast
  TGI: > 100 µM
EKVX NSCLC
  TGI: > 100 µM
MOLT-4 leukemia
  TGI: 75.7 µM
OVCAR-3 ovarian
  TGI: > 100 µM
CAKI-1 renal
  TGI: > 100 µM
OVCAR-4 ovarian
  TGI: > 100 µM
U251 CNS
  TGI: > 100 µM

## CCCN1C(=O)CN(S(=O)(=O)c2ccc(Cl)cc2)C1=O
786-0 renal
  TGI: > 100 µM
TK-10 renal
  TGI: > 100 µM
LOX IMVI melanoma
  TGI: > 100 µM
HS 578T breast
  TGI: > 100 µM
RPMI-8226 leukemia
  TGI: > 100 µM
SK-OV-3 ovarian
  TGI: > 100 µM
PC-3 prostate
  TGI: > 100 µM
SF-268 CNS
  TGI: > 100 µM
SK-MEL-28 melanoma
  TGI: > 100 µM
KM12 colon
  TGI: > 100 µM
HL-60(TB) leukemia
  TGI: > 100 µM
SF-295 CNS
  TGI: > 100 µM
COLO 205 colon
  TGI: > 100 µM
MCF7 breast
  TGI: > 100 µM
ACHN renal
  TGI: > 100 µM
SK-MEL-5 melanoma
  TGI: > 100 µM
HT29 colon
  TGI: > 100 µM
IGROV1 ovarian
  TGI: > 100 µM
HCT-116 colon
  TGI: > 100 µM
NCI-H23 lung
  TGI: > 100 µM
HOP-92 NSCLC
  TGI: > 100 µM
SF-539 CNS
  TGI: > 100 µM
CCRF-CEM leukemia
  TGI: > 100 µM
NCI-H460 lung
  TGI: > 100 µM
T-47D breast
  TGI: > 100 µM
UACC-62 melanoma
  TGI: > 100 µM
HCC-2998 colon
  TGI: > 100 µM
UO-31 renal
  TGI: > 100 µM
MALME-3M melanoma
  TGI: > 100 µM
A498 renal
  TGI: > 100 µM
SK-MEL-2 melanoma
  TGI: > 100 µM
UACC-257 melanoma
  TGI: > 100 µM
NCI-H226 lung
  TGI: > 100 µM
DU-145 prostate
  TGI: > 100 µM
BT-549 breast
  TGI: > 100 µM
SR leukemia
  TGI: > 100 µM
SNB-19 CNS
  TGI: > 100 µM
HOP-62 NSCLC
  TGI: > 100 µM
MDA-MB-435
  TGI: > 100 µM
SW-620 colon
  TGI: > 100 µM
M14 melanoma
  TGI: > 100 µM
K-562 leukemia
  TGI: > 100 µM
HCT-15 colon
  TGI: > 100 µM
SNB-75 CNS
  TGI: > 100 µM
OVCAR-5 ovarian
  TGI: > 100 µM
A549 NSCLC
  TGI: > 100 µM
SN12C renal
  TGI: > 100 µM
MDA-N
  TGI: > 100 µM
NCI-H522 lung
  TGI: > 100 µM
RXF 393 renal
  TGI: > 100 µM
MDA-MB-231 breast
  TGI: > 100 µM
EKVX NSCLC
  TGI: > 100 µM
OVCAR-3 ovarian
  TGI: > 100 µM
CAKI-1 renal
  TGI: > 100 µM
OVCAR-4 ovarian
  TGI: > 100 µM
U251 CNS
  TGI: > 100 µM
